{"source": "paper PMC12765074", "about": "“Mechanistic insights into enterocin C targeting the undecaprenyl phosphate recycling protein BacA” (The Journal of Biological Chemistry, 2025)", "key": {"BacAef R172A": {"target": "BacAef R172A (Enterococcus faecalis, UniProt A0ACD6TE02, R184A)", "experiment": "ITC, BacAef R172A", "type": "binding", "conditions": "20 °C", "method": "(§1) The experiments were carried out at 20 °C."}, "BacAef [1]": {"target": "T1, BacAef (Enterococcus faecalis, UniProt A0ACD6TE02)", "experiment": "DSS crosslinking", "type": "binding", "conditions": "BacAef and peptide 17 μM each, DSS 100- or 1000-fold excess, 30 min, 4 °C", "method": "Crosslinking experiments were performed using the amine-reactive, membrane-permeable, and non-cleavable crosslinker disuccinimidyl suberate (DSS) purchased from Sigma. EntC peptides and BacA protein were mixed at equimolar concentrations (17 μM) in buffer D in the presence of an excess of DSS crosslinker (1000-fold or 100-fold) in a final reaction volume of 20 μl. The reaction was incubated for 30 min at 4°C, and any unreacted DSS was quenched with 50 mM Tris-HCl. After separation on a 12% acrylamide gel, proteins were electrotransferred onto polyvinylidene difluoride (PVDF) membrane, and BacA was detected using peroxidase-coupled anti-His tag antibody (Penta-His HRP conjugate from Qiagen, RRID: AB_3699318) by chemiluminescence detection (Western Lightning Plus-ECL, PerkinElmer) using the ChemiDoc MP system (Bio-Rad)."}, "BacAef [2]": {"target": "T1, BacAef", "type": "biochemical", "conditions": "DDM micelles; 20 mM Tris-HCl pH 7.4, 400 μM CaCl2, 150 mM NaCl, 0.1% DDM, 50 μM [14C]C55-PP, 10 min, 37 °C, TLC; EntC vs EntC1 p-value = 0.0007; read-out: IC50, BacAef C55-PP phosphatase activity"}, "L. lactis IL1403": {"test_system": "L. lactis IL1403", "experiment": "spot-on-lawn antibacterial assay, L. lactis", "type": "cell-based, Lactococcus lactis", "conditions": "6 μl droplets, L. lactis IL1403, M17G agar, overnight"}, "BacAec [3]": {"target": "T2, BacAec (Escherichia coli, UniProt P60932)", "T2 sequence (P60932 whole entry)": "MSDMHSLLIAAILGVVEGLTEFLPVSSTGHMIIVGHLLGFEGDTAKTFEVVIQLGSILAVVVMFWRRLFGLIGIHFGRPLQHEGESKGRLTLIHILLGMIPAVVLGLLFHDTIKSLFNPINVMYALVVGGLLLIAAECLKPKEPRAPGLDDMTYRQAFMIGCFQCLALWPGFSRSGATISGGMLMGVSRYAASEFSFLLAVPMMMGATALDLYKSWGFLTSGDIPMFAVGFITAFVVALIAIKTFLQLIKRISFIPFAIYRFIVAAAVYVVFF", "conditions": "DDM micelles", "procedure": "The C55-PP phosphatase assays were performed in a 10-μl reaction mixture containing 20 mM Tris-HCl, pH 7.4, 400 μM CaCl2, 150 mM NaCl, 0.1% (w/v) DDM and 50 μM radiolabeled [^14C]C55-PP (900 Bq). The BacA concentration was adjusted in order to achieve less than 30% substrate hydrolysis. The mixture was incubated for 10 min at 37 °C, and the reaction was stopped by freezing in liquid nitrogen. Substrates and products were separated by thin-layer chromatography on precoated silica gel 60 plates (Merck) using 1-propanol/ammonium hydroxide/water (6:3:1, v/v/v) as the mobile phase. Radioactive spots were located and quantified using a radioactivity scanner (model Multi-Tracermaster LB285, Berthold-France). When the phosphatase activity was tested at different pH values, the following buffers were used at 20 mM: sodium acetate (pH 4–7) or Tris-HCl (pH 7–8). In the EDTA assay, the protein was pre-treated with 200 μM EDTA. For pH and EDTA assays, CaCl2 was omitted from the reaction buffer."}, "[4]": {"test_system": "EfΔbacA cells carrying pIL:bacAef", "experiment": "spot assay on bacA-complemented strain", "type": "cell-based, Enterococcus faecalis", "conditions": "spot on BHI agar"}, "E. faecalis cells": {"test_system": "E. faecalis cells", "experiment": "growth prevention in liquid culture", "type": "cell-based, Enterococcus faecalis"}, "BacAef-liposomes": {"test_system": "BacAef-liposomes", "conditions": "5 μM EntC, internal pH 8, external pH 6, peptide:lipid c.a. 1:1300, without EntC 1.10^-4 sec^-1"}, "BacAec [5]": {"target": "T2, BacAec", "conditions": "titration of EntC into BacAec", "procedure": "ITC experiments were performed with an ITC200 isothermal titration calorimeter from MicroCal (Malvern Panalytical, Malvern, UK). The experiments were carried out at 20 °C. The protein concentration in the microcalorimeter cell (0.2 ml) was 33 μM. Nineteen 2-μl injections of peptides at 400 μM were performed at intervals of 240 s while stirring at 500 rpm. To limit buffer mismatching effect between the cell and the syringe, and the heat-of-dilution effect for having glycerol in the protein solution, the latter were extensively dialyzed, prior to the ITC measurement, in a buffer containing 20 mM Tris-HCl pH 7.4, 200 mM NaCl, 0.1% DDM, to remove glycerol. Then, the dialysis buffer was used to dilute the EntC peptides to further limit buffer mismatching. The experimental data were fitted to theoretical titration curves with the software supplied by MicroCal (ORIGIN). This software uses the relationship between the heat generated by each injection and ΔH (enthalpy change in kcal/mol), Ka (the association binding constant in M^−1), n (the number of binding sites), total protein concentration and free and total ligand concentrations."}, "[6]": {"test_system": "E. faecalis EfΔbacA cells expressing BacAef K209A D106A", "experiment": "survival test", "type": "cell-based, Enterococcus faecalis", "conditions": "0.5 μM EntC, 30 min, 37 °C, p ≤ 0.01, three experiments"}, "BacAef S26A": {"target": "BacAef S26A (Enterococcus faecalis, UniProt A0ACD6TE02, S38A)", "experiment": "ITC, BacAef S26A", "type": "binding", "conditions": "20 °C", "method": "as §1"}, "BacAef [7]": {"target": "T1, BacAef", "type": "binding", "conditions": "DSC, BacAef 33 μM + peptides 66 μM, 60 °C/h, representative of triplicate", "method": "Thermal stability of BacA protein in different mixtures of peptides was performed by DSC on a MicroCal model VP-DSC (Malvern Panalytical, Malvern, UK). BacA (33 μM) was mixed with different mixtures of peptides at twice the BacA concentration (i.e. 66 μM). Each measurement was preceded by a baseline scan with the standard buffer. Scans were performed at 1 K/min (60 °C/h) temperature ramp between 30 °C and 100 °C. The heat capacity of the buffer was subtracted from that of the protein sample before analysis. The thermodynamic parameters were determined by fitting the data to the following equation: ΔCp(T)=Kd(T)ΔHcalΔHvH/[1+Kd(T)]^2RT^2 where Kd is the equilibrium constant for a two-state process, ΔHvH the enthalpy calculated based on a two-state process and ΔHcal the measured enthalpy."}, "[8]": {"test_system": "E. faecalis EfΔbacA cells expressing BacAef S26A", "experiment": "survival test", "type": "cell-based, Enterococcus faecalis", "conditions": "0.5 μM EntC, 30 min, 37 °C, p ≤ 0.01, three experiments"}, "[9]": {"test_system": "E. faecalis EfΔbacA cells expressing BacAef K209A D106A D110A", "experiment": "survival test", "type": "cell-based, Enterococcus faecalis", "conditions": "0.5 μM EntC, 30 min, 37 °C, p ≤ 0.0001, three experiments"}, "BacAef E20A": {"target": "BacAef E20A (Enterococcus faecalis, UniProt A0ACD6TE02, E32A)", "experiment": "ITC, BacAef E20A", "type": "binding", "conditions": "20 °C", "method": "as §1"}, "E. faecalis": {"test_system": "E. faecalis", "conditions": "ref [17]; cited from earlier work"}, "[10]": {"test_system": "E. faecalis EfΔbacA cells expressing BacAef variants (K209A variants)", "experiment": "spot-on-lawn assay, D106/D110/K209 variants", "type": "cell-based, Enterococcus faecalis", "conditions": "compared to wild-type BacAef"}, "[11]": {"test_system": "E. faecalis EfΔbacA cells expressing BacAef D106A", "experiment": "survival test", "type": "cell-based, Enterococcus faecalis", "conditions": "0.5 μM EntC, 30 min, 37 °C, three experiments"}, "[12]": {"test_system": "E. faecalis (V583-derivative strain, WT)", "type": "cell-based, Enterococcus faecalis", "conditions": "6 μl droplets on a lawn of E. faecalis, BHI 0.75% agar, overnight; representative of three independent experiments"}, "[13]": {"test_system": "EfΔbacA cells (pIL252 empty vector)", "experiment": "spot assay on bacA-deleted strain", "type": "cell-based, Enterococcus faecalis", "conditions": "spot on BHI agar"}}, "note": "Where “and” joins values, the source holds several entries; their conditions need not be identical. Identical values can stand only once. Marks after values point to notes of the source that are not given here.", "data": [{"substance": "Enterocin C [EntC]", "values": [{"measurement": "n", "setting": "BacAef R172A; 400 μM into [BacAef R172A] 33 μM", "value": "0.30 ± 0.03"}, {"measurement": "Kd", "setting": "BacAef R172A; 400 μM into [BacAef R172A] 33 μM, pH 7.4, 0.1% DDM, at least triplicate", "value": "1.61 ± 0.65", "unit": "µM"}, {"measurement": "-TΔS", "setting": "BacAef R172A; into [BacAef R172A]", "value": 3.6, "unit": "kcal/mol"}, {"measurement": "ΔG", "setting": "BacAef R172A; into [BacAef R172A]", "value": -7.8, "unit": "kcal/mol"}, {"measurement": "ΔH", "setting": "BacAef R172A; into [BacAef R172A]", "value": -11.4, "unit": "kcal/mol"}, {"measurement": "crosslinked complex band with BacAef (SDS-PAGE, western blot)", "setting": "BacAef [1]", "value": "two faint bands appeared above the BacA monomer"}, {"measurement": "IC50", "setting": "BacAef [2]", "value": "0.4 ± 0.1", "unit": "µM"}, {"measurement": "antibacterial activity (spot-on-lawn), L. lactis", "setting": "L. lactis IL1403", "value": "sensitivity to both bacteriocins"}, {"measurement": "inhibition of BacAec C55-PP phosphatase activity", "setting": "BacAec [3]", "value": "not inhibited"}, {"measurement": "susceptibility of EfΔbacA strain with ectopic bacA", "setting": "[4]", "value": "fully restored"}, {"measurement": "concentration required to prevent the growth of E. faecalis cells", "setting": "E. faecalis cells; BHI", "value": 100, "unit": "nM"}, {"measurement": "concentration required to prevent the growth of E. faecalis cells", "setting": "E. faecalis cells; M17", "value": 50, "unit": "nM"}, {"measurement": "concentration required to prevent the growth of E. faecalis cells", "setting": "E. faecalis cells; MRS", "value": 2, "unit": "nM"}, {"measurement": "rate of decrease of BCECF fluorescence", "setting": "BacAef-liposomes", "value": "about 6.10^-4 sec^-1"}, {"measurement": "binding to BacAec (ITC)", "setting": "BacAec [5]", "value": "no binding"}, {"measurement": "% of survival", "setting": "[6]", "value": "14 ± 4.0 ^c %"}, {"measurement": "n", "setting": "BacAef S26A; 400 μM into [BacAef S26A] 33 μM", "value": "0.80 ± 0.02"}, {"measurement": "Kd", "setting": "BacAef S26A; 400 μM into [BacAef S26A] 33 μM, pH 7.4, 0.1% DDM, at least triplicate", "value": "0.439 ± 0.125", "unit": "µM"}, {"measurement": "-TΔS", "setting": "BacAef S26A; into [BacAef S26A]", "value": 8.5, "unit": "kcal/mol"}, {"measurement": "ΔG", "setting": "BacAef S26A; into [BacAef S26A]", "value": -8.5, "unit": "kcal/mol"}, {"measurement": "ΔH", "setting": "BacAef S26A; into [BacAef S26A]", "value": -17.0, "unit": "kcal/mol"}, {"measurement": "melting temperature (Tm) of BacAef", "setting": "BacAef [7]; 30-100 °C, Tris-HCl pH 7.5, 0.1% DDM, BacAef alone 66.3 °C", "value": 83.8, "unit": "°C"}, {"measurement": "enthalpy of denaturation (ΔH) of BacAef", "setting": "BacAef [7]; BacAef alone 26.7 kcal/mol", "value": 83.7, "unit": "kcal/mol"}, {"measurement": "% of survival", "setting": "[8]", "value": "6.8% and 6.8 ± 2.4 ^c %"}, {"measurement": "% of survival", "setting": "[9]", "value": "54% and 54 ± 11 ^d %"}, {"measurement": "n", "setting": "BacAef E20A; 400 μM into [BacAef E20A] 33 μM", "value": "0.69 ± 0.01"}, {"measurement": "Kd", "setting": "BacAef E20A; 400 μM into [BacAef E20A] 33 μM, pH 7.4, 0.1% DDM, at least triplicate", "value": "0.19 ± 0.04", "unit": "µM"}, {"measurement": "-TΔS", "setting": "BacAef E20A; into [BacAef E20A]", "value": 13.0, "unit": "kcal/mol"}, {"measurement": "ΔG", "setting": "BacAef E20A; into [BacAef E20A]", "value": -9, "unit": "kcal/mol"}, {"measurement": "ΔH", "setting": "BacAef E20A; into [BacAef E20A]", "value": -22.0, "unit": "kcal/mol"}, {"measurement": "activity against E. faecalis", "setting": "E. faecalis", "value": "active against the opportunistic pathogen E. faecalis"}, {"measurement": "susceptibility of EfΔbacA expressing K209A variants", "setting": "[10]", "value": "small reduction in susceptibility"}, {"measurement": "% of survival", "setting": "[11]", "value": "1.6 ± 1.0", "unit": "%"}, {"measurement": "antibacterial activity (spot-on-lawn), E. faecalis", "setting": "[12]", "value": "E. faecalis was only susceptible to EntC"}, {"measurement": "susceptibility of EfΔbacA strain", "setting": "[13]", "value": "full resistance"}]}]}
